The source of these data is US20240315297A1, “STEVIOL GLYSOCIDE SOLUBILITY ENHANCERS” (CARGILL, INCORPORATED, priority 2017, published 2024).

Molecules are shown by their SMILES.

A short description of data set [1]: Observation of samples for solubility/precipitation in water (Example 9). The following applies: for time over which a soluble solution was promoted: 0.3% steviol glycoside mixture, 5:1 molar ratio of acid to steviol glycoside. The format is physicochemical.
For data set [2] the following is noted: sensory evaluation; cited from earlier work.
The format of data set [3] is physicochemical. The text has this:
The composition can optionally be expressed in terms of the concentration of one or more steviol glycoside(s). […] Clear solutions without precipitates are considered soluble. Unless indicated otherwise herein, the term “solubility” refers to “equilibrium solubility.”

Take `O=C(O)c1cc(O)c(O)c(O)c1` [Gallic acid]: the “colour imparted to the sample solutions” value in data set [1] (more apparent at higher concentrations, observed after about 3 days) was “brownish tinge”.
Take `O=C(O)C(O)c1ccccc1` (centres unmarked) [Mandelic acid]: the “time over which a soluble solution was promoted” value in data set [1] is on record as 3 days.
With `O=C(O)c1cc(C(=O)O)c(C(=O)O)cc1C(=O)O` [Pyromellitic acid], the “time over which a soluble solution was promoted” value in data set [1] is given as 3 days.
In the case of `C=C1C[C@@]23CC[C@H]4[C@@](C)(CCC[C@@]4(C)C(=O)O[C@@H]4O[C@H](CO)[C@@H](O)[C@H](O)[C@H]4O[C@@H]4O[C@H](CO)[C@@H](O)[C@H](O)[C@H]4O)[C@@H]2CC[C@]1(O[C@@H]1O[C@H](CO)[C@@H](O)[C@H](O[C@@H]2O[C@H](CO)[C@@H](O)[C@H](O)[C@H]2O)[C@H]1O[C@@H]1O[C@H](CO)[C@@H](O)[C@H](O)[C@H]1O)C3` [Rebaudioside D, rebaudioside D], the “times sweeter than sucrose” value in data set [2] is 200-220 times. Besides, in data set [3], the equilibrium solubility was 0.08% and the instantaneous solubility result is reported as “less than 0.08%”.
As for `C=C1C[C@@]23CC[C@H]4[C@@](C)(CCC[C@@]4(C)C(=O)O[C@@H]4O[C@H](CO)[C@@H](O)[C@H](O[C@@H]5O[C@H](CO)[C@@H](O)[C@H](O)[C@H]5O)[C@H]4O[C@@H]4O[C@H](CO)[C@@H](O)[C@H](O)[C@H]4O)[C@@H]2CC[C@]1(O[C@@H]1O[C@H](CO)[C@@H](O)[C@H](O[C@@H]2O[C@H](CO)[C@@H](O)[C@H](O)[C@H]2O)[C@H]1O[C@@H]1O[C@H](CO)[C@@H](O)[C@H](O)[C@H]1O)C3` [Rebaudioside M, rebaudioside M], in data set [3], the equilibrium solubility entry is “about 0.2%” and the instantaneous solubility entry is “about 0.13%”.
